≈ marks a conversion by molar mass, not a printed value. Calls of active or inactive are those of the source. The rule behind the calls is not given here.
Tests used:
Staphylococcus aureus = test: Antimicrobial activity against Staphylococcus aureus MTCC 96; type: functional
Streptococcus pyogenes = test: Antimicrobial activity against Streptococcus pyogenes MTCC 442; type: functional
Escherichia coli = test: Antimicrobial activity against Escherichia coli MTCC 443; type: functional
Pseudomonas aeruginosa = test: Antimicrobial activity against Pseudomonas aeruginosa MTCC 1688; type: functional
Candida albicans = test: Antimicrobial activity against Candida albicans MTCC 227; type: functional
[1] = Cytotoxicity in Schizosaccharomyces pombe assessed as cell viability at 2 ug/ml (reference value: 94.67 +/- 1.53%); settings: Schizosaccharomyces pombe cells, read-out: Activity
[2] = Cytotoxicity in Schizosaccharomyces pombe assessed as cell viability at 4 ug/ml (reference value: 94.67 +/- 1.53%); settings: Schizosaccharomyces pombe cells, read-out: Activity
[3] = Cytotoxicity in Schizosaccharomyces pombe assessed as cell viability at 6 ug/ml (reference value: 94.67 +/- 1.53%); settings: Schizosaccharomyces pombe cells, read-out: Activity
[4] = Cytotoxicity in Schizosaccharomyces pombe assessed as cell viability at 8 ug/ml (reference value: 94.67 +/- 1.53%); settings: Schizosaccharomyces pombe cells, read-out: Activity
[5] = Cytotoxicity in Schizosaccharomyces pombe assessed as cell viability at 10 ug/ml (reference value: 94.67 +/- 1.53%); settings: Schizosaccharomyces pombe cells, read-out: Activity
[6] = test system: Schizosaccharomyces pombe; test: Genotoxicity in Schizosaccharomyces pombe assessed as induction of DNA damage by measuring appearance of DNA smear DNA band at 2 to 10 ug/ml by agarose gel electrophoresis
Plasmodium falciparum = test: Antimalarial activity against Plasmodium falciparum; type: functional
Dihydrofolate reductase = target: T1, Dihydrofolate reductase (Bos taurus, UniProt P00376); test: Inhibition of bovine liver DHFR
T1 sequence (P00376 whole entry): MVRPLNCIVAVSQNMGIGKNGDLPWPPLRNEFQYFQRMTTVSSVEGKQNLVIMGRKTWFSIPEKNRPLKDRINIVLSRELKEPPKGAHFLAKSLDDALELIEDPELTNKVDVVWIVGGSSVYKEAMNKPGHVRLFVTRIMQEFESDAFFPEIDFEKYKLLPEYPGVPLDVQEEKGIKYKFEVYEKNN

Aspergillus clavatus [7] = settings: MTCC 1323
Aspergillus clavatus [8] = test: Antimicrobial activity against Aspergillus clavatus MTCC 1323; type: functional

| Compound | MIC (Staphylococcus aureus) | MIC (Streptococcus pyogenes) | MIC (Escherichia coli) | MIC (Pseudomonas aeruginosa) | MIC (Candida albicans) | viability at 2 ug/ml [1] | viability at 4 ug/ml [2] | viability at 6 ug/ml [3] | viability at 8 ug/ml [4] | viability at 10 ug/ml [5] | Activity [6] | IC50 (Plasmodium falciparum) | IC50 (Dihydrofolate reductase) | MIC (Aspergillus clavatus [7]) | MIC (Aspergillus clavatus [8]) |
| --- | --- | --- | --- | --- | --- | --- | --- | --- | --- | --- | --- | --- | --- | --- | --- |
| Brc1ccc(/C=N/c2nc3ccccc3s2)cc1 | 791 µM (≈ 251 µg/mL) | 633 µM (≈ 201 µg/mL) | 198 µM (≈ 62.8 µg/mL) | 396 µM (≈ 126 µg/mL) | inactive | 77.3% | 73.3% | 72.3% | 68.3% | 66.3% | Toxic | 288 nM | 45.5 nM | inactive |  |
| Fc1ccc(/C=N/c2nc3ccccc3s2)cc1 | 244 µM (≈ 62.5 µg/mL) | 391 µM (≈ 100 µg/mL) | 781 µM (≈ 200 µg/mL) | 976 µM (≈ 250 µg/mL) | 1950 µM (≈ 501 µg/mL) | 86.3% | 81.7% | 73% | 72.3% | 71.7% | Toxic | 1480 nM |  |  | 1950 µM (≈ 501 µg/mL) |
| C(=N\c1nc2ccccc2s1)/c1ccc[nH]1 | 551 µM (≈ 125 µg/mL) | 440 µM (≈ 100 µg/mL) | 881 µM (≈ 200 µg/mL) | 1100 µM (≈ 250 µg/mL) | 2200 µM (≈ 500 µg/mL) | 87% | 82.3% | 74.3% | 71.7% | 69.7% | Toxic | 1910 nM |  |  | 4400 µM (≈ 1000 µg/mL) |
| C(=N\c1nc2ccccc2s1)/c1ccco1 | 877 µM (≈ 200 µg/mL) | 439 µM (≈ 100 µg/mL) | 548 µM (≈ 125 µg/mL) | 877 µM (≈ 200 µg/mL) | 4380 µM (≈ 1000 µg/mL) | 78.7% | 73% | 64% | 62.3% | 61.7% | Toxic | 1860 nM |  | inactive |  |
| O=C(O)c1cn(C2CC2)c2cc(N3CCNCC3)c(F)cc2c1=O [CIPROFLOXACIN] | 151 µM (≈ 50 µg/mL) | 151 µM (≈ 50 µg/mL) | 75 µM (≈ 24.9 µg/mL) | 75 µM (≈ 24.9 µg/mL) |  |  |  |  |  |  |  |  |  |  |  |
| CC1(C)S[C@@H]2[C@H](NC(=O)[C@H](N)c3ccccc3)C(=O)N2[C@H]1C(=O)O [AMPICILLIN] | 716 µM (≈ 250 µg/mL) | 286 µM (≈ 99.9 µg/mL) | 286 µM (≈ 99.9 µg/mL) | 286 µM (≈ 99.9 µg/mL) |  |  |  |  |  |  |  |  |  |  |  |
| Clc1ccc(/C=N/c2nc3ccccc3s2)cc1Cl | 409 µM (≈ 126 µg/mL) | 327 µM (≈ 100 µg/mL) | 409 µM (≈ 126 µg/mL) | 409 µM (≈ 126 µg/mL) | inactive | 89% | 84.3% | 81% | 77% | 73.3% | Toxic | 980 nM |  |  | 1630 µM (≈ 502 µg/mL) |
| O=[N+]([O-])c1ccccc1/C=N/c1nc2ccccc2s1 | 353 µM (≈ 100 µg/mL) | 221 µM (≈ 62.6 µg/mL) | 442 µM (≈ 125 µg/mL) | 707 µM (≈ 200 µg/mL) | 3530 µM (≈ 1000 µg/mL) | 84.3% | 82% | 79.7% | 77% | 72.3% | Toxic | 396 nM | 53.1 nM | inactive |  |
| COC1=CC(=O)C[C@@H](C)[C@]12Oc1c(Cl)c(OC)cc(OC)c1C2=O [GRISEOFULVIN] |  |  |  |  | 1420 µM (≈ 501 µg/mL) |  |  |  |  |  |  |  |  |  | 284 µM (≈ 100 µg/mL) |
| C(=N\c1nc2ccccc2s1)/c1cccs1 | 410 µM (≈ 100 µg/mL) | 410 µM (≈ 100 µg/mL) | 256 µM (≈ 62.6 µg/mL) | 410 µM (≈ 100 µg/mL) | 4100 µM (≈ 1000 µg/mL) | 86% | 81.7% | 80.7% | 73% | 67% | Toxic | 1020 nM |  | inactive |  |
| CCn1cc(C(=O)O)c(=O)c2cc(F)c(N3CCNCC3)cc21 [NORFLOXACIN] | 31 µM (≈ 9.9 µg/mL) | 31 µM (≈ 9.9 µg/mL) | 31 µM (≈ 9.9 µg/mL) | 31 µM (≈ 9.9 µg/mL) |  |  |  |  |  |  |  |  |  |  |  |
| NYSTATIN |  |  |  |  | 108 µM |  |  |  |  |  |  |  |  | 108 µM |  |
| Oc1ccc(/C=N/c2nc3ccccc3s2)cc1 | 984 µM (≈ 250 µg/mL) | 1970 µM (≈ 500 µg/mL) | 394 µM (≈ 100 µg/mL) | 394 µM (≈ 100 µg/mL) | inactive | 87% | 75% | 69.3% | 68.3% | 65.3% | Toxic | 386 nM | 51.2 nM | inactive |  |
| CCc1nc(N)nc(N)c1-c1ccc(Cl)cc1 [PYRIMETHAMINE] |  |  |  |  |  |  |  |  |  |  |  | 1000 nM |  |  |  |
| Clc1ccc(/C=N/c2nc3ccccc3s2)cc1 | 460 µM (≈ 125 µg/mL) | 368 µM (≈ 100 µg/mL) | 735 µM (≈ 200 µg/mL) | 460 µM (≈ 125 µg/mL) | 3680 µM (≈ 1000 µg/mL) | 89.3% | 87% | 82.7% | 78% | 75.3% | Toxic | 353 nM | 41.5 nM |  | 1840 µM (≈ 501 µg/mL) |
| O=[N+]([O-])c1cccc(/C=N/c2nc3ccccc3s2)c1 | 707 µM (≈ 200 µg/mL) | 883 µM (≈ 250 µg/mL) | 883 µM (≈ 250 µg/mL) | 221 µM (≈ 62.6 µg/mL) | 1770 µM (≈ 501 µg/mL) | 88.7% | 84% | 79.3% | 74.7% | 70.3% | Toxic | 201 nM | 31.2 nM |  | 883 µM (≈ 250 µg/mL) |
| O=C(N[C@H](CO)[C@H](O)c1ccc([N+](=O)[O-])cc1)C(Cl)Cl [CHLORAMPHENICOL] | 155 µM (≈ 50.1 µg/mL) | 155 µM (≈ 50.1 µg/mL) | 155 µM (≈ 50.1 µg/mL) | 155 µM (≈ 50.1 µg/mL) |  |  |  |  |  |  |  |  |  |  |  |
